Read-outs that look alike come from different tables or passages of the source.
Tests used:
[1] = tested on: NKp44L membrane expression on Calu-3 cells; assay type: cell-based, human; settings: for Induction of NKp44L membrane expression: Calu-3, individual peptides/pools of sub-pools no 8.2 and no 8.3; for induction of the expression of NKp44L (in words): Calu-3 lung cell line
[2] = tested on: NKp44L membrane expression on A549: hu ACE-2 cells; assay type: cell-based, human; settings: for Induction of NKp44L membrane expression: A549, individual peptides/pools of sub-pools no 8.2 and no 8.3; for induction of the expression of NKp44L (in words): A549: hu ACE-2 lung cell line

Substance	Induction of NKp44L membrane expression ([1]; Experiment no 1)	Induction of NKp44L membrane expression ([1]; Experiment no 2)	Induction of NKp44L membrane expression ([1]; Experiment no 3)	Induction of NKp44L membrane expression ([2]; Experiment no 1)	Induction of NKp44L membrane expression ([2]; Experiment no 2)	Induction of NKp44L membrane expression ([2]; Experiment no 3)	induction of the expression of NKp44L (in words) [1]	induction of the expression of NKp44L (in words) [2]
nqfnsaigkiqdslssta [Spi232]	421	301	412	101	127	148	–	–
yenqklianqfnsaigki [Spi230]	2213	2403	2173	1202	1198	1195	induce the expression of NKp44L	induce the expression of NKp44L
rfngigvtqnvlyengkl [Spi227]	2507	2726	2592	1402	1517	1538	induce the expression of NKp44L	induce the expression of NKp44L
qmayrfngigvtqnvlye [Spi226]	103	112	119	53	59	71	–	–
igvtqnvlyenqklianq [Spi228]	91	103	117	75	82	89	–	–
klianqfnsaigkiqdsl [Spi231]	2250	2406	2207	1308	1232	1199	induce the expression of NKp44L	induce the expression of NKp44L
qnvlyenqkliangfnsa [Spi229]	2103	1889	1875	1167	1021	993	induce the expression of NKp44L	induce the expression of NKp44L
